For data set [1], the system named is K562/DOX cells. Nature of the data set: Doxorubicin cytotoxicity enhancement assay (MTT). It counts as cell-based, human. The note with it: 72 h. Put shortly: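 K562/DOX cells exposed 72 h to varying doxorubicin concentrations plus 1 or 3 µM test compound. Viability by MTT absorbance, expressed as percentage of untreated control cells.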
In data set [2] the test system is A549 cells. Nature of the data set: Intrinsic cytotoxicity (MTT). It counts as cell-based, human. The note with it: compound alone at 1 µM; parental A549; 48 h. Here is the method: (§1) All compounds were preliminarily studied to evaluate their intrinsic cytotoxicity at different concentrations (from 10 nM to 50 µM) in the parental HT29 and A549 and the resistant HT29/DOX and A549/DOX cells using the MTT assay.
(§2) The intrinsic toxicity of the studied compounds was determined by an MTT assay. K562 and K562/DOX were exposed for 72 h with compounds at 1 and 3 µM concentrations while HT29, A549, HT29/DOX and A549/DOX cells were incubated for 48 h with compounds used at different concentrations (from 10 nM to 50 µM). The percentage of growth compared to the untreated control was transformed into histograms with the GraphPad Prism 5 program.

Data set [3] has as its system HT29 cells. Kind of data set: Intrinsic cytotoxicity (MTT). The format is cell-based, human. The note with it: compound alone at 1 µM; parental HT29; 48 h. Here is the method: as §1, §2
For data set [4], the system named is A549/DOX cells. Nature of the data set: Intrinsic cytotoxicity (MTT). The note with it: 48 h; for toxicity: compound alone at 1 µM, A549/DOX; for more cytotoxic in resistant cells than in parental sensitive cells: compound alone, 1 µM, A549/DOX vs A549. The format is cell-based, human. Put shortly:
(§3)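 Resistant HT29/DOX and A549/DOX cells exposed for 48 h to compounds from 10 nM to 50 µM; viability measured by MTT. Growth expressed as percentage of untreated control.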

For data set [5], the system named is HT29/DOX cells. Nature of the data set: Intrinsic cytotoxicity (MTT). The format is cell-based, human. Particulars: 48 h; for toxicity: compound alone at 1 µM, HT29/DOX; for more cytotoxic in resistant cells than in parental sensitive cells: compound alone, 1 µM, HT29/DOX vs HT29. The procedure, abridged:
as §3

Data set [6] has as its system A549/DOX cells. Nature of the data set: ROS measurement (DCFDA-AM). Particulars: 1 µM. It counts as cell-based, human. Here is the method:
(§4) Selected compounds have been tested for their cytotoxic activity at 24 h on HT29/DOX and A549/DOX cells and on the parental HT29 and A549 cells by MTT assay. To evaluate the mechanisms involved in CS, reactive oxygen species (ROS) were measured using the fluorescent probe 5-(and-6)-chloromethyl-2′,7′-dichlorodihydro-fluorescein diacetate-acetoxymethyl ester (DCFDA-AM), as previously reported. The results were expressed as nmol/mg cellular proteins. The amount of TBARS, as an index of lipoperoxidation, was measured with the Lipid Peroxidation (4-HNE) Assay Kit (Abcam, Cambridge, UK) that evaluates the 4-hydroxy-nonenale, one of the TBARS Results were expressed as nmoles/mg mitochondrial protein.

For data set [7], the system named is HT29/DOX cells. Nature of the data set: ROS measurement (DCFDA-AM). The format is cell-based, human. The note with it: 1 µM. The method, then: as §4
Data set [8] relates to A549/DOX cells. Nature of the data set: TBARS (lipid peroxidation, 4-HNE kit). It counts as cell-based, human. The note with it: 1 µM. The method, then:
as §4

The test system of data set [9] is HT29/DOX cells. Nature of the data set: TBARS (lipid peroxidation, 4-HNE kit). The format is cell-based, human. The note with it: 1 µM. Here is the method: as §4
Data set [10] has as its system A549/DOX cells. Kind of data set: Membrane fluidity. The format is cell-based, human. The note with it: 1 µM. The method, then: (§5) Membrane fluidity was measured fluorometrically using the Membrane Fluidity Kit, Abcam, according to the manufacturer’s instructions.
Data set [11] deals with HT29/DOX cells. Nature of the data set: Membrane fluidity. It counts as cell-based, human. Particulars: 1 µM. The method, then: as §5
The target in data set [12] is T1, P-gp (Homo sapiens, UniProt P08183). Nature of the data set: P-gp ATPase activity (A549/DOX cells). The format is biochemical. Also on record: endogenous in cells; host or cells: HT29/DOX (A27) and A549/DOX (A28). The note with it: 1 µM, compared with A549. Here is the method:
Plasma-membrane vesicles enriched with P-gp were prepared by sequential centrifugation as detailed previously. The ATPase activity of immunopurified P-gp was evaluated spectrophotometrically by measuring the absorbance of the phosphate hydrolyzed from ATP at 620 nm, using a Synergy HT Multi-Detection Microplate Reader (Bio-Tek Instruments). The absorbance was converted into μmol hydrolyzed phosphate/min/mg proteins, according to the titration curve previously prepared.

Data set [13] deals with T1, P-gp. Kind of data set: Calcein-AM transport inhibition in MDCK-MDR1 cells. The format is cell-based. On the set-up: expressed in transfected cells; host or cells: MDCK (Madin-Darby Canine Kidney). Particulars: mean ± SEM. From the text: The MDR interaction potency of these compounds was studied by detecting the inhibition of the P-gp-, MRP1- or BCRP-mediated efflux of a substrate in cells overexpressing the studied pumps. In detail, we measured the following: (i) the transport inhibition of the profluorescent probe calcein-AM (P-gp and MRP1 substrate) in MDCK-MDR1 and MDCK-MRP1 cells (P-gp- and MRP1-overexpressing cells, respectively); (ii) the transport inhibition of the fluorescent probe Hoechst 33342 (BCRP substrate) in MDCK-BCRP cells (BCRP-overexpressing cells).
Experiments were performed as previously described. MDCK-MDR1 and MDCK-MRP1 cells (30,000 cells per well) were seeded in a 96-well black CulturePlate in 100 µL of medium and allowed to grow overnight in a humidified atmosphere of 5% CO2 at 37 °C. Tested compounds (100 µL) in a final concentration ranging between 0.01 nM and 100 µM, solubilized in culture medium, were added to the monolayers. After 30 min in a humidified atmosphere of 5% CO2 at 37 °C, 100 µL of Calcein-AM in phosphate-buffered saline (PBS) was added to obtain a final concentration of 2.5 µM and the plate was incubated for 30 min. All wells were washed 3 times with 100 µL ice-cold PBS and read with Victor3 (PerkinElmer) after adding 100 µL of cold PBS. Excitation and emission wavelengths of 485 nm and 535 nm, respectively, were used. In these experimental conditions, cell Calcein-AM accumulation in the absence and in the presence of each tested compound was evaluated and compared to the basal level of fluorescence derived from untreated cells. The increase in fluorescence from the baseline level was measured in the treated wells. EC50 values were determined by fitting the rate of fluorescence increase versus log[dose].

T1 sequence (P08183 whole entry): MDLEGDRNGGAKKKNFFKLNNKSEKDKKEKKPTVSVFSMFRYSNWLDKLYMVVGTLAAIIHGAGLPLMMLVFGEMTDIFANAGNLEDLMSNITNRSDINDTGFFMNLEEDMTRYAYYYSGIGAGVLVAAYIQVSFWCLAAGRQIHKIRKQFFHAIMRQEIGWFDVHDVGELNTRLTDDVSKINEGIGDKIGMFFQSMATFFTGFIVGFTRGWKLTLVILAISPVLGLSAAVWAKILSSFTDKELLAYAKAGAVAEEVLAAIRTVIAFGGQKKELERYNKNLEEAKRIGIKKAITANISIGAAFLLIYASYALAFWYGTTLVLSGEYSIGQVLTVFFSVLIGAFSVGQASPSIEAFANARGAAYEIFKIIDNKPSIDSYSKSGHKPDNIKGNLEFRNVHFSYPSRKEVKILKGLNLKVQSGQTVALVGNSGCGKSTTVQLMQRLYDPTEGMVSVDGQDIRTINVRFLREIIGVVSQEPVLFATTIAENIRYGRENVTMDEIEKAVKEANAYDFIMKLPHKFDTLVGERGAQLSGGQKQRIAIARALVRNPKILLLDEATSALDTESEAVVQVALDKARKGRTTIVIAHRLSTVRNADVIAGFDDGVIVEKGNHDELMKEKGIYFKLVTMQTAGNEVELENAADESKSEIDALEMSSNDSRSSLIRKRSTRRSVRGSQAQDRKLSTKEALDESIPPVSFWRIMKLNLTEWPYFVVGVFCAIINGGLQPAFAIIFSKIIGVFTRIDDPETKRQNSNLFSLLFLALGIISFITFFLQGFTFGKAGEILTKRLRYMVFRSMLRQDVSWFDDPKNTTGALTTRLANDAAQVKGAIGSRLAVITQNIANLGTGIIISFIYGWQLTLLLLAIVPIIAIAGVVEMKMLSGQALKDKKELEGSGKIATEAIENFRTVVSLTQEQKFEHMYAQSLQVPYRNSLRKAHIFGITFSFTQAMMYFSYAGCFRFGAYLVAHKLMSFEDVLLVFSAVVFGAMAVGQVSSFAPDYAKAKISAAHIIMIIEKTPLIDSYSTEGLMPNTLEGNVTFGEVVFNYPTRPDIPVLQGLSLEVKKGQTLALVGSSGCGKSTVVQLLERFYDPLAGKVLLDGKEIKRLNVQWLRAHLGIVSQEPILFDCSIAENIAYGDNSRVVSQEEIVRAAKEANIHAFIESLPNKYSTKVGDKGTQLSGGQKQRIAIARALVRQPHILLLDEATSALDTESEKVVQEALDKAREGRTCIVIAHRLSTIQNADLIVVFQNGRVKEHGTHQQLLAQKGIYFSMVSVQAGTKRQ

Turning to `COc1ccc(C(CCCN2CCN(CCCCOc3ccc4ccc(=O)oc4c3)CC2)c2ccc(OC)cc2)cc1` [Compound 27, 7-(4-(4-(4,4-Bis(4-methoxyphenyl)butyl)piperazin-1-yl)butoxy)-2H-chromen-2-one], the “RF (Reversal Fold: IC50 of doxorubicin alone / in presence of modulator)” value in [1] (compound at 1 µM) is listed as 8.1. Also, the toxicity in [2], in [3], in data set [4] and in data set [5] was at least 35% in each case. Further, the “more cytotoxic in resistant cells than in parental sensitive cells” value in data set [4] and in [5] was 15%-20% in each case. Moreover, the “increase of ROS levels compared to the control” value in data set [6] is given as 7–8 times; in [7], 3–4 times. The results for the “increase of TBARS levels compared to the control” value in [8] and in data set [9] were 4 times and 2.6 times, respectively. Besides, the membrane fluidity result in data set [10] and in data set [11] was “increased membrane fluidity” throughout. For the same compound, the P-gp catalytic activity entry in data set [12] was “lowered the catalytic efficacy of P-gp in resistant cells to levels comparable to drug-sensitive HT29 and A549 cells”. Moreover, in data set [13], the EC50 is 3.99 ± 0.11 µM.
For `COc1ccc(C(CCCN2CCN(CCCOc3ccc4oc(=O)ccc4c3)CC2)c2ccc(OC)cc2)cc1` [Compound 32, 6-(3-(4-(4,4-Bis(4-methoxyphenyl)butyl)piperazin-1-yl)propoxy)-2H-chromen-2-one], the entries for the “RF (Reversal Fold: IC50 of doxorubicin alone / in presence of modulator)” value in [1] (compound at 1 µM) and in data set [1] (compound at 3 µM) were 3.6 and 7.9, respectively. In addition, the toxicity in data set [2], in data set [3], in data set [4] and in data set [5] was at least 35% throughout. The “more cytotoxic in resistant cells than in parental sensitive cells” value in data set [4] and in [5] was 15%-20% throughout. Moreover, the “increase of ROS levels compared to the control” value is reported as 7–8 times in [6] and 3–4 times in data set [7]. For the same compound, the “increase of TBARS levels compared to the control” value is 4 times in data set [8] and 2.6 times in data set [9]. Further, the membrane fluidity entry in data set [10] and in [11] was “increased membrane fluidity” each time. Moreover, the P-gp catalytic activity entry in [12] is “lowered the catalytic efficacy of P-gp in resistant cells to levels comparable to drug-sensitive HT29 and A549 cells”. The EC50 in data set [13] was 4.53 ± 0.17 µM.

The values above are taken from article PMC11279465, “Dual Inhibitors of P-gp and Carbonic Anhydrase XII (hCA XII) against Tumor Multidrug Resistance with Piperazine Scaffold” (Molecules, 2024).
